Laboratory results taken from patent US6737383B1, “Herbicidal oxadiazolidines” (priority 1999, dated 2004).

Legend:
bedstraw = assay: Test B pre/postemergence bedstraw; assay type: in vivo, Galium aparine
Summary of the method: (§1)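 Herbicidal effect was estimated by eye on a ten-point control scale after plants spent twelve to sixteen days in a greenhouse following soil or foliar treatment. Foliar sprays targeted plants at one to four leaves; all doses were formulated in a non-phytotoxic solvent with surfactant.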

blackgrass = assay: Test B pre/postemergence blackgrass; assay type: in vivo, Alopecurus myosuroides
Summary of the method: as §1

surinam grass = assay: Test B pre/postemergence surinam grass; assay type: in vivo, Brachiaria decumbens
Summary of the method: as §1

cocklebur = assay: Test B pre/postemergence cocklebur; assay type: in vivo, Xanthium strumarium
Summary of the method: as §1

corn = assay: Test B pre/postemergence corn; assay type: in vivo, Zea mays
Summary of the method: as §1

crabgrass = assay: Test B pre/postemergence crabgrass; assay type: in vivo, Digitaria sanguinalis
Summary of the method: as §1

rape = assay: Test B pre/postemergence rape; assay type: in vivo, Brassica napus
Summary of the method: as §1

soybean = assay: Test B pre/postemergence soybean; assay type: in vivo, Glycine max
Summary of the method: as §1

sugar beet = assay: Test B pre/postemergence sugar beet; assay type: in vivo, Beta vulgaris
Summary of the method: as §1

velvetleaf = assay: Test B pre/postemergence velvetleaf; assay type: in vivo, Abutilon theophrasti
Summary of the method: as §1

wheat = assay: Test B pre/postemergence wheat; assay type: in vivo, Triticum aestivum
Summary of the method: as §1

wild oat = assay: Test B pre/postemergence wild oat; assay type: in vivo, Avena fatua
Summary of the method: as §1

purple nutsedge = assay: Test B pre/postemergence purple nutsedge; assay type: in vivo, Cyperus rotundus
Summary of the method: as §1

rice = assay: Test B flood test rice; assay type: in vivo, Oryza sativa
Summary of the method: (§2)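 Each value is a visual injury score relative to controls, with 10 meaning complete control and 0 no effect. Evaluation took place twelve to sixteen days after the 2-leaf-stage plants were treated and kept in the greenhouse.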

smallflower flatsedge = assay: Test B flood test smallflower flatsedge; assay type: in vivo, Cyperus difformis
Summary of the method: as §2

duck salad = assay: Test B flood test duck salad; assay type: in vivo, Heteranthera limosa
Summary of the method: as §2

bamyardgrass = assay: Test B flood test barnyardgrass; assay type: in vivo, Echinochloa crus-galli
Summary of the method: as §2

[1] = Postemergence, Rate 125 g/ha, scale of 0 to 10 where 0 is no effect and 10 is complete control
[2] = Preemergence, Rate 62 g/ha, scale 0 to 10 (0 no effect, 10 complete control)
[3] = Preemergence, Rate 125 g/ha, 0 is no effect, 10 is complete control
[4] = Preemergence, Rate 250 g/ha, scale 0 to 10, 0 is no effect, 10 is complete control
[5] = Preemergence, Rate 500 g/ha, scale 0 to 10 (0 no effect, 10 complete control)
[6] = Rate 62 g/ha, Postemergence, scale of 0 to 10 where 0 is no effect and 10 is complete control
[7] = Rate 250 g/ha, Postemergence, scale 0 to 10, 0 is no effect, 10 is complete control
[8] = Rate 500 g/ha, Postemergence, scale 0 to 10
[9] = Postemergence (flood test species), Rate 125 g/ha, scale of 0 to 10 where 0 is no effect and 10 is complete control
[10] = Rate 250 g/ha, Postemergence (flood test), scale 0 to 10, 0 is no effect, 10 is complete control
[11] = Rate 500 g/ha, listed under Postemergence (flood test species), scale 0 to 10

## CCOC(=O)Cn1c(=O)on(C(=O)N(c2ccc(F)cc2)C(C)C)c1=O [Compound 128]
bedstraw; [1]
  Bedstraw plant response rating: 0
bedstraw; [2]
  Bedstraw plant response rating: 0
bedstraw; [3]
  Bedstraw plant response rating (0 to 10 scale): 0
bedstraw; [4]
  Bedstraw plant response rating: 0
bedstraw; [5]
  Bedstraw plant response rating: 0
bedstraw; [6]
  Bedstraw plant response rating: 0
bedstraw; [7]
  Plant response rating, Bedstraw: 0
bedstraw; Rate 500 g/ha, Postemergence, scale 0 to 10, 0 no effect, 10 complete control
  Bedstraw plant response rating: 0
blackgrass; [1]
  Blackgrass plant response rating: 0
blackgrass; [2]
  Blackgrass plant response rating: 0
blackgrass; [3]
  Blackgrass plant response rating (0 to 10 scale): 0
blackgrass; [4]
  Blackgrass plant response rating: 0
blackgrass; [5]
  Blackgrass plant response rating: 2
blackgrass; [6]
  Blackgrass plant response rating: 0
blackgrass; [7]
  Plant response rating, Blackgrass: 0
blackgrass; [8]
  Blackgrass plant response rating: 0
Surinam grass; [1]
  B. signalgrass plant response rating: 0
Surinam grass; [2]
  B. signalgrass plant response rating: 0
Surinam grass; [3]
  B. signalgrass plant response rating (0 to 10 scale): 0
Surinam grass; [4]
  B. signalgrass plant response rating: 0
Surinam grass; [5]
  B. signalgrass plant response rating: 0
Surinam grass; [6]
  B. signalgrass plant response rating: 0
Surinam grass; [7]
  Plant response rating, B. signalgrass: 0
Surinam grass; Rate 500 g/ha, Postemergence, scale of 0 to 10 where 0 is no effect and 10 is complete control
  B. signalgrass plant response rating: 0
cocklebur; [1]
  Cocklebur plant response rating: 0
cocklebur; [2]
  Cocklebur plant response rating: 0
cocklebur; [3]
  Cocklebur plant response rating (0 to 10 scale): 0
cocklebur; [4]
  Cocklebur plant response rating: 0
cocklebur; [5]
  Cocklebur plant response rating: 0
cocklebur; [6]
  Cocklebur plant response rating: 0
cocklebur; [7]
  Plant response rating, Cocklebur: 0
cocklebur; [8]
  Cocklebur plant response rating: 0
corn; [1]
  Corn plant response rating: 0
corn; [2]
  Corn plant response rating: 0
corn; [3]
  Corn plant response rating (0 to 10 scale): 0
corn; [4]
  Corn plant response rating: 0
corn; [5]
  Corn plant response rating: 0
corn; [6]
  Corn plant response rating: 0
corn; [7]
  Plant response rating, Corn: 0
corn; [8]
  Corn plant response rating: 0
crabgrass; [1]
  Crabgrass plant response rating: 0
crabgrass; [2]
  Crabgrass plant response rating: 0
crabgrass; [3]
  Crabgrass plant response rating (0 to 10 scale): 0
crabgrass; [4]
  Crabgrass plant response rating: 0
crabgrass; [5]
  Crabgrass plant response rating: 0
crabgrass; [6]
  Crabgrass plant response rating: 0
crabgrass; [7]
  Plant response rating, Crabgrass: 0
crabgrass; [8]
  Crabgrass plant response rating: 0
rape; [1]
  Rape plant response rating: 0
rape; [2]
  Rape plant response rating: 0
rape; [3]
  Rape plant response rating (0 to 10 scale): 0
rape; [4]
  Rape plant response rating: 0
rape; [5]
  Rape plant response rating: 0
rape; [6]
  Rape plant response rating: 0
rape; [7]
  Plant response rating, Rape: 0
rape; [8]
  Rape plant response rating: 0
soybean; [1]
  Soybean plant response rating: 0
soybean; [2]
  Soybean plant response rating: 0
soybean; [3]
  Soybean plant response rating (0 to 10 scale): 0
soybean; [4]
  Soybean plant response rating: 0
soybean; [5]
  Soybean plant response rating: 0
soybean; [6]
  Soybean plant response rating: 0
soybean; [7]
  Plant response rating, Soybean: 0
soybean; [8]
  Soybean plant response rating: 0
Sugar beet; [1]
  Sugarbeets plant response rating: 0
Sugar beet; [2]
  Sugarbeets plant response rating: 0
Sugar beet; [3]
  Sugarbeets plant response rating (0 to 10 scale): 0
Sugar beet; [4]
  Sugarbeets plant response rating: 0
Sugar beet; [5]
  Sugarbeets plant response rating: 0
Sugar beet; [6]
  Sugarbeets plant response rating: 0
Sugar beet; [7]
  Plant response rating, Sugarbeets: 0
Sugar beet; [8]
  Sugarbeets plant response rating: 0
velvetleaf; [1]
  Velvetleaf plant response rating: 0
velvetleaf; [2]
  Velvetleaf plant response rating: 0
velvetleaf; [3]
  Velvetleaf plant response rating (0 to 10 scale): 0
velvetleaf; [4]
  Velvetleaf plant response rating: 0
velvetleaf; [5]
  Velvetleaf plant response rating: 0
velvetleaf; [6]
  Velvetleaf plant response rating: 0
velvetleaf; [7]
  Plant response rating, Velvetleaf: 0
velvetleaf; [8]
  Velvetleaf plant response rating: 0
wheat; [1]
  Wheat plant response rating: 0
wheat; [2]
  Wheat plant response rating: 0
wheat; [3]
  Wheat plant response rating (0 to 10 scale): 0
wheat; [4]
  Wheat plant response rating: 0
wheat; [5]
  Wheat plant response rating: 0
wheat; [6]
  Wheat plant response rating: 0
wheat; [7]
  Plant response rating, Wheat: 0
wheat; [8]
  Wheat plant response rating: 0
Wild oat; [1]
  Wild oats plant response rating: 0
Wild oat; [2]
  Wild oats plant response rating: 0
Wild oat; [3]
  Wild oats plant response rating (0 to 10 scale): 0
Wild oat; [4]
  Wild oats plant response rating: 0
Wild oat; [5]
  Wild oats plant response rating: 0
Wild oat; [6]
  Wild oats plant response rating: 0
Wild oat; [7]
  Plant response rating, Wild oats: 0
Wild oat; [8]
  Wild oats plant response rating: 0
Purple nutsedge; [1]
  Nutsedge plant response rating: 0
Purple nutsedge; [2]
  Nutsedge plant response rating: 0
Purple nutsedge; [3]
  Nutsedge plant response rating (0 to 10 scale): 0
Purple nutsedge; [4]
  Nutsedge plant response rating: 0
Purple nutsedge; [5]
  Nutsedge plant response rating: 0
Purple nutsedge; [6]
  Nutsedge plant response rating: 0
Purple nutsedge; [7]
  Plant response rating, Nutsedge: 0
Purple nutsedge; [8]
  Nutsedge plant response rating: 0
rice; [9]
  Rice plant response rating: 0
rice; [10]
  Plant response rating, Rice: 0
rice; [11]
  Rice plant response rating: 0
Smallflower flatsedge; [9]
  S. Flatsedge plant response rating: 0
Smallflower flatsedge; [10]
  Plant response rating, S. Flatsedge: 0
Smallflower flatsedge; [11]
  S. Flatsedge plant response rating: 0
Duck salad; [9]
  Ducksalad plant response rating: 0
Duck salad; [10]
  Plant response rating, Ducksalad: 0
Duck salad; [11]
  Ducksalad plant response rating: 0
bamyardgrass; [9]
  Barnyardgrass plant response rating: 0
bamyardgrass; [10]
  Plant response rating, Barnyardgrass: 0
bamyardgrass; Rate 500 g/ha, listed under Postemergence (flood test species), scale 0 to 10, 0 no effect, 10 complete control
  Barnyardgrass plant response rating: 0
